US8927498B2, “Compositions and methods useful in enhancement of memory” (The Translational Genomics Research Institute, priority 2010, dated 2015)
Entries after “also recorded” stand apart in the source; their conditions may differ.

System: seventeen-month-old Fischer-344 male rats (aged rat model of cognitive decline)
Experiment: water-escape plus maze, spatial working memory
Assay type: in vivo
Settings: 17-month-old Fischer-344 male rats, 1 mg/kg/day, vs vehicle (saline), n=9
Experimental: In one embodiment of the present disclosed invention, the transduction complex comprises a fusion peptide including a TAT protein transduction domain and residues surrounding two known serine phosphorylation targets (Ser159 and Ser163) within MARCKS (SEQ ID NO: 3). The compound was administered to seventeen-month-old rats and behavioral spatial working memory of the rats was assessed by behavior testing. […] Such assays include, without limitation, the Morris water maze and the radial arm water maze, plus maze. For example, when employing the Morris water maze, a rat is trained to swim to a submerged platform. The rat can then be treated with an agent at a particular dose for a particular duration. Following treatment, the mean escape latency (i.e., time to find platform) is measured and compared to the mean escape latency of a control. […] Following treatment, the ability of the rat to remember a newly-learned path is measured and compared to that of a control. […] In the water Plus Maze test, the variables measured include the percentage of time spent in the open and closed areas of the maze, the latency to leave the central platform, the total number of crossings between the various open and closed areas of the maze, and the number of crossings into the open areas of the maze divided by the total number of crossings. […]

## SEQ ID NO: 1: fusion peptide including a TAT protein transduction domain and residues surrounding two known serine phosphorylation targets (Ser159 and Ser163) within MARCKS (YGRKKRRQRRRCKRFSFKKSFKLSGFSFKK; TAT MARCKS fusion)
  working memory performance in water-escape plus maze: acquired the plus maze task at a faster rate; also recorded: enhanced working memory performance
